From patent US20070196902A1, “Method of detecting AZT resistance in HIV” (University of Pittsburgh, priority 2006, published 2007)

Legend:
[1] = test system: HIV-1 RT mutants with A371V and/or Q509L, alone or in combination with TAMs; test: Drug susceptibility of site-directed mutants, comparisons between mutants with and without A371V/Q509L; format: cell-based
[2] = test system: HIV-1 RT H539N; details: H539N mutation; cited from earlier work
[3] = test system: HIV-1 RT D549N with TAMs D67N, K70R, T215Y and K219Q; details: D549N present with TAMs D67N; cited from earlier work
[4] = test system: HIV-1 RT N3481 with "classic" TAMs; details: N3481 present with "classic" TAMs; cited from earlier work
[5] = test system: HIV-1 RT A360I with "classic" TAMs; details: A360I present with "classic" TAMs; cited from earlier work

SMILES: Cc1cn([C@H]2C[C@H](N=[N+]=[N-])[C@@H](CO)O2)c(=O)[nH]c1=O [AZT, 3′-azido-3′-dideoxythymidine]
- greater AZT resistance conferred by T215F than T215I ([1]; T215F versus T215I): ~25 fold
- AZT resistance conferred by A371V and Q509L, alone or together ([1]; in the absence of TAMs): did not confer AZT resistance
- increase in resistance (reduced susceptibility) [2]: 180 fold
- increase in resistance [3]: 1,230 fold
- reduction of AZT susceptibility [4]: 35 fold
- reduction of AZT susceptibility [5]: 30 fold
